Assay results from patent US10087465B2, “Trans-acting elements for intracellular delivery of nucleic acid sequences” (The United States of America, as Represented by the …, priority 2014, dated 2018).
“Also recorded” adds a separate entry of the source. {NH2} = C-terminal amide of the PNA; {F1} = fluorescein label

Tests used:
Assay type in all cases: cell-based
HeLa pLuc 705 cells = experiment: Endocytic pathway assays; conditions: dTtaPS-mediated uptake of PNA oligomer 10, chlorpromazine 30 μM, nystatin 50 μM, EIPA 1 mM
Method: Endocytic pathway assays: HeLa pLuc 705 cells were seeded in a 96-well plate and grown in 10% FBS-DMEM as described above. The cell culture was then pre-incubated for 30 min at 37° C. in the presence of chlorpromazine, nystatin or 5-(N-ethyl-N-isopropyl)amiloride (EIPA), the final concentration of which was 30 μM, 50 μM or 1 mM, respectively. A 2× solution of PNA oligomer 10:dTtaPS complex was added to the cells to provide an oligomer and dTtaPS final concentration of 1.0 μM and 2.0 μM, respectively. The cells were then incubated for an additional 30 min at 37° C., whereupon luciferase activity was measured as described above in the Luciferase assay protocol. Luminescence measurements were normalized to the amounts of protein present in the test samples and reported as percent luminescence remaining relative to that of the experiment performed in the absence of endocytic pathway inhibitors.

[1] = tested on: HEK 293, HeLa, HeLa pLuc705, MCF7 and SK—N—SH live cells; experiment: Flow cytometry (FACS) analysis of cellular uptake of fluorescently-labeled PNA or PMO oligomers in live cells; conditions: for PS-dT8[3+] (dTtaPS)-mediated delivery of fluoresceinated PMO oligomers: PMO oligomer 1 μM, PS-dT8[3+] 2 μM, all cell lines, FIG. 17; for PS-dT8[3+] (dTtaPS)-mediated cellular internalization of fluoresceinated PNA oligomers: in the presence of PS-dT8[3+], oligomer 1 μM, all cell lines under study, FIG. 11
Method: (§1) Complex formation between PNA or PMO oligomers and dTtaPS or dAtaPS: Appropriate amounts of PNA or PMO oligomers were diluted in serum-free OptiMEM™ (20 μl). dTtaPS or dAtaPS was added to the oligomer solution to achieve a final concentration that is twice that of the oligomer. After 30 min incubation at 37° C., the PNA or PMO oligomer: dTtaPS or dAtaPS complexes were stored at 4° C. for 15 minutes or until used. Stock solutions (2×) of the complexes were made by adding OptiMEM™ to appropriate volumes.
Flow cytometry analysis of cellular uptake in live cells: The internalization of fluorescently-labeled PNA or PMO sequences (Table 1) in HEK 293, HeLa, MCF7 and SK—N—SH cells was assessed by flow cytometry. Cells were seeded in a 96-well plate (10^4 cells/well) and allowed to grow at 37° C. for 24 h in 10% FBS-MEM. The culture medium of each well was then replaced with fresh medium (100 μl) containing any of the fluorescently-labeled PNA or PMO sequences, the final concentration of which was 1 μM. After an incubation of 18 h at 37° C., the medium was removed from each well by suction and 0.25% Trypsin (50 μl) was added. Upon complete cell detachment, a solution (100 μl) of ice-cold 2% FBS in phosphate-buffered saline (PBS, pH 7.4) was added to each well. The cells were collected into tubes, to which was added 0.4% Trypan blue (50 μl) and 200 µM monensin (20 μl), and analyzed by fluorescence-activated cell sorting (FACS) using a BD FACScan™ flow cytometer. A total of 5000 events were counted and the results were reported as a percentage of the cells that have internalized the fluorescently-labeled oligomers.

HeLa pLuc705 cells = experiment: Luciferase splice correction assay; conditions: for luciferase activity (splice correction) upon PS-dT8[3+] (dTtaPS)-assisted delivery of PNA oligomers: FIG. 12, 13, 15; for luciferase activity / internalization upon PS-dA8[3+] (dAtaPS)-mediated delivery of PNA oligomers: PS-dA8[3+] 2.0 μM, compared with PS-dT8[3+]:10 complex, FIG. 16
Method: The efficiency of PS-dT8[3+] in the cellular uptake of polyA-tailed PNA oligomers was assessed through the luciferase splice correction assay in which the mutated intron 2 of the human β-globin gene has been inserted within the coding sequence of a luciferase reporter gene (pLuc705). The activation of a cryptic splice site in this intron leads to a defective luciferase enzyme. In the presence of a PNA oligomer complementary to the aberrant splice site, correct splicing is restored and results in an active luciferase. A concentration-dependence of splice correction activity by PS-dT8[3+]-mediated internalization of the PNA oligomer 10 in HeLa pLuc705 cells is shown in FIG. 12.
as §1
Luciferase assay protocol: HeLa pLuc 705 cells were seeded in a 96-well plate (2×10^4 cells/well) and allowed to grow at 37° C. for 18 h in 10% FBS-DMEM. The culture medium of each well was then replaced with either fresh serum-free or 20% serum-containing OptiMEM™ (50 μl) for experiments intended to be performed in serum-free or in 10% serum-containing media. A 2× solution of PNA or PMO oligomer:dTtaPS or dAtaPS complexes (50 μl) was added to the cells in order to achieve pre-determined complex concentrations, as indicated in the Figures. After a 4-hour incubation at 37° C., 20% FBS in OptiMEM™ (100 μl was added to serum-free experiments and cells were incubated for an additional 18 h at 37° C. The media was then removed by suction and the cells were mixed with a cell lysis reagent (50 μl) and agitated at ambient temperature for 10 minutes. The cell lysate (30 μl) was placed in a white 96-well plate and Bright-Glo™ reagent (20 μl) was added. Luciferase activity was measured using a microplate reader. For each well, luminescence was integrated over a period of 1 sec and recorded as relative light units (RLU). Luminescence measurements were normalized to the amount of protein present in the test sample.
Appropriate amounts of PNA/PMO oligomers were diluted in OptiMEM™ (20 μL) to achieve the concentration of 1 μM or as indicated in the Figures. PS-dT8[3+] or PS-dAs[3+] was added to the above oligomer solutions. After a 30 min incubation at 37° C., the PNA/PMO oligomer:PS-dT8[3+] or PS-dA8[3+] complexes were removed and kept at 4° C. for 15 minutes or until used. Stock solutions of the complexes were made by adding OptiMEM™ to appropriate volumes.
Luciferase Assay: Prior to performing experiments, HeLa pLuc 705 cells were seeded in a 96-well plate (2×10^4 cells/well) and allowed to grow at 37° C. for 18 h in 10% FBS DMEM. The culture medium of each well was then replaced with either fresh 50 μL serum free or 20% serum-containing OptiMEM™ for experiments intended to be performed in serum free or in 10% serum-containing media. A 2× solution of the PNA/PMO oligomer:PS-dT8[3+] or PS-dAs[3+] complexes (50 μL) was added to the cells in order to achieve a pre-determined concentration as indicated in the figures. After a 4-hour incubation at 37° C., 20% FBS in OptiMEM (100 μL) was added to serum free experiments and cells were incubated for an additional 18 h at 37° C. The media was then removed by suction and the cells were mixed with a cell lysis reagent (50 μL) and agitated at ambient temperature over a period of 10 minutes. The cell lysate (30 μL) was placed in white 96-well plate and Bright-Glow™ reagent (20 μL) was added. Luciferase activity was measured using a microplate reader. […]

CCN(c1nc(N)c(C(=O)N=C(N)N)nc1Cl)C(C)C [EIPA, 5-(N-ethyl-N-isopropyl)amiloride]
inhibition of luciferase production by endocytic pathway inhibitor (HeLa pLuc 705 cells): ~95%

C[C@@H]1[C@H](O)[C@@H](C)/C=C/C=C/CC/C=C/C=C/C=C/C=C/C(O[C@H]2O[C@H](C)[C@@H](O)[C@H](N)[C@@H]2O)CC2O[C@](O)(CC(O)C(O)CCC(O)CC(O)CC(O)CC(=O)O[C@H]1C)CC(O)C2C(=O)O (stereo partly shown) [Nystatin, nystatin]
inhibition of luciferase production by endocytic pathway inhibitor (HeLa pLuc 705 cells): did not inhibit

CN(C)CCCN1c2ccccc2Sc2ccc(Cl)cc21 [chlorpromazine]
inhibition at 30 µM (HeLa pLuc 705 cells; Homo sapiens, HeLa, read-out: inhibition of luciferase production by endocytic pathway inhibitor): ~40%

PMO oligomer 19: commercial PMO, GTGGCCGTTTACGTCGCC-AAAAAA-F1, SEQ ID NO. 13 (GTGGCCGTTTACGTCGCCAAAAAA; PMO, F1 label, chemistry not fully specified)
PS-dT8[3+] (dTtaPS)-mediated delivery of fluoresceinated PMO oligomers ([1]; listed as 19): confirmed the dTtaPS-assisted delivery

PMO oligomer 20: commercial PMO, CCTCTTACCTCAGTTACA-F1, SEQ ID NO. 14 (all phosphorodiamidate morpholino (PMO), 3' {F1})
PS-dT8[3+] (dTtaPS)-mediated delivery of fluoresceinated PMO oligomers [1]: reduced to that of the medium

PMO oligomer 24: commercial PMO, CCTCTTACCTCAGTTACA-AATAAA, SEQ ID NO. 18 (CCTCTTACCTCAGTTACAAATAAA; all phosphorodiamidate morpholino (PMO))
luciferase activity upon PS-dT8[3+] (dTtaPS)-assisted internalization of PMO oligomers (HeLa pLuc705 cells; PMO oligomer 1 μM, PS-dT8[3+] 2 μM, relative to PMO oligomer 21, FIG. 18, listed as 24): did not significantly decrease; also recorded: did not significantly affect

PNA oligomer 8: commercial PNA, F1-GTGGCCGTTTACGTCGCC-AAAAAA-NH2, SEQ ID NO. 2 (GTGGCCGTTTACGTCGCCAAAAAA; PNA, F1 label, C-amide, chemistry not fully specified)
PS-dT8[3+] (dTtaPS)-mediated cellular internalization of fluoresceinated PNA oligomers [1]: efficiently internalized

PNA oligomer 9: commercial PNA, F1-CCTCTTACCTCAGTTACA-NH2, SEQ ID NO. 3 (all peptide nucleic acid (PNA), 5' {F1}; PNA with C-terminal amide, further chemistry not fully specified)
PS-dT8[3+] (dTtaPS)-mediated cellular internalization of fluoresceinated PNA oligomers [1]: not significantly internalized

PNA oligomer 11: commercial PNA, negative control, H-GTGGCCGTTTACGTCGCC-AAAAAA-NH2, SEQ ID NO. 5 (GTGGCCGTTTACGTCGCCAAAAAA; all peptide nucleic acid (PNA); PNA with N-terminal H and C-terminal amide, further chemistry not fully specified)
luciferase activity (splice correction) upon PS-dT8[3+] (dTtaPS)-assisted delivery of PNA oligomers (HeLa pLuc705 cells; PS-dT8[3+] 2 μM, listed as 11): failed, as expected for a negative control, to restore luciferase activity

PNA oligomer 12: commercial PNA, H-CCTCTTACCTCAGTTACA-NH2, SEQ ID NO. 6 (all peptide nucleic acid (PNA); PNA with N-terminal H and C-terminal amide, further chemistry not fully specified)
luciferase activity (splice correction) upon PS-dT8[3+] (dTtaPS)-assisted delivery of PNA oligomers (HeLa pLuc705 cells; PS-dT8[3+] 2 μM): did not restore luciferase activity

PNA oligomer 15: commercial PNA, H-CCTCTTACCTCAGTTACA-TTTTTT-NH2, SEQ ID NO. 9 (CCTCTTACCTCAGTTACATTTTTT; all peptide nucleic acid (PNA); PNA with N-terminal H and C-terminal amide, further chemistry not fully specified)
luciferase activity / internalization upon PS-dA8[3+] (dAtaPS)-mediated delivery of PNA oligomers (HeLa pLuc705 cells; listed as 15): about half the level of luciferase activity
luciferase activity (splice correction) upon PS-dT8[3+] (dTtaPS)-assisted delivery of PNA oligomers (HeLa pLuc705 cells; PS-dT8[3+] 2 μM, listed as 15): did not result in significant production of luciferase activity; also recorded: did not lead to the production of luciferase activity

PNA oligomer 16: commercial PNA, H-CCTCTTACCTCAGTTACA-CCCCCC-NH2, SEQ ID NO. 10 (CCTCTTACCTCAGTTACACCCCCC; all peptide nucleic acid (PNA), 3' {NH2}; further chemistry not fully specified)
luciferase activity / internalization upon PS-dA8[3+] (dAtaPS)-mediated delivery of PNA oligomers (HeLa pLuc705 cells; listed as 16): failed to recognize and internalize
luciferase activity (splice correction) upon PS-dT8[3+] (dTtaPS)-assisted delivery of PNA oligomers (HeLa pLuc705 cells; PS-dT8[3+] 2 μM, listed as 16): did not result in significant production of luciferase activity; also recorded: did not lead to the production of luciferase activity

PNA oligomer 17: commercial PNA, H-AAAAAA-CCTCTTACCTCAGTTACA-NH2, SEQ ID NO. 11 (AAAAAACCTCTTACCTCAGTTACA; all peptide nucleic acid (PNA); PNA with N-terminal H and C-terminal amide, further chemistry not fully specified)
luciferase activity / internalization upon PS-dA8[3+] (dAtaPS)-mediated delivery of PNA oligomers (HeLa pLuc705 cells; listed as 17): failed to recognize and internalize
luciferase activity (splice correction) upon PS-dT8[3+] (dTtaPS)-assisted delivery of PNA oligomers (HeLa pLuc705 cells; PS-dT8[3+] 2 μM): did not significantly affect
